{"source": "patent US4952598A", "about": "“3-phenyl indolinone derivatives, processes for their preparation, medicaments containing them, and their use” (Hoechst Aktiengesellschaft, priority 1985, dated 1990)", "note": "Where a name gives a salt, the structure may show the parent alone."}
{"molecular_target": "calcium channels", "experiment": "3H-nitrendipine binding (nitrendipine displacement) test", "details": "3H-nitrendipine 0.1 nM, rat brain cortex membranes, pH 7.4, 25° C., 60 min", "procedure": "Their calcium-antagonistic activity can be shown in the biochemical test model of displacement of tritium-labeled nitrendipine.\nThis entails membrane preparations which contain isolated calcium channels being loaded with labeled substance.\nAfter incubation with the test substance, the radioactivity which has been released into the supernatant solution is determined. […] The compounds of the formula I are likewise very active in other test models with which a calcium-antagonistic action can be detected, for example the coronary blood flow in the isolated guinea pig heart, or the action potential of the isolated guinea pig papillary muscle.\nThe test of the activity of substances in the ^3 H-nitrendipine binding test was carried out in a membrane preparation obtained from the cortex of the rat brain and washed several times, the method used essentially being that described by R.J. Gould et al. (Proc. Natl. Acad. Sci. USA 79, 3656 [1982]). The membrane suspension was diluted 1:1500 with TRIS buffer pH 7.4 (50 mM TRIS.HCl, 150 mM NaCl, 1.0 mM CaCl2 and 0.001% by weight, based on TRIS.HCl, NaCl and CaCl2 in solution, of a neutral surface-active substance such as, for example, Genapol^(R)) was incubated in 5 ml portions with ^3 H-nitrendipine (0.1 nM in the test, specific activity 81.3 Ci/mmol) in a shaking water bath at 25° C. for 60 min. The membrane fractions were removed by vacuum filtration through Whatman GF/F glass fiber filters, and the radioactivity was measured in a liquid scintillation counter. The unspecific ^3 H-nitrendipine binding was determined in the presence of 1 μM nifedipine.", "units": {"IC50": "nM"}}
{"smiles": "CC(C)C1(c2ccccc2OCCCCN2CCN(CCCC(c3ccc(F)cc3)c3ccc(F)cc3)CC2)C(=O)N(C)c2ccccc21", "note": "(stereo not shown) [Example 5, 3-[2-(4-(4-(4-bis(4-fluorophenyl)butyl)-1-piperazinyl)butoxy)phenyl]-3-isopropyl-1-methylindolin-2-one dihydrochloride]", "IC50": 13}
{"smiles": "COc1ccc(CCN(C)CCCCOc2ccccc2C2(C(C)C)C(=O)N(C)c3ccccc32)cc1OC", "note": "(stereo not shown) [Example 3, 3-[2-(4-(N-(2-(3,4-dimethoxyphenyl)ethyl)-N-methylamino)butoxy)-phenyl]-3-isopropyl-1-methylindolin-2-one hydrochloride]", "IC50": 22}
{"smiles": "COc1ccc(CCN(C)CCCCOc2ccccc2C2(Cc3ccccc3)C(=O)N(C)c3ccccc32)cc1OC", "note": "(stereo not shown) [Example 1, 3-Benzyl-3-[2-(4-(N-(2-(3,4-dimethoxyphenyl)ethyl)-N-methylamino)butoxy)phenyl]-1-methylindolin-2-one hydrochloride]", "IC50": 8000}
{"smiles": "COc1cc(CN2CCN(CCCCOc3ccccc3C3(C(C)C)C(=O)N(C)c4ccccc43)CC2)cc(OC)c1OC", "note": "(stereo not shown) [Example 6, 3-Isopropyl-1-methyl-3-[2-(4-(4-(3,4,5-trimethoxybenzyl)-1-piperazinyl)butoxy)phenyl)indolin-2-one dichydrochloride]", "IC50": 44}
